# From patent US20230331719A1, “Pyrazolopyridine Compounds and Methods of Inhibiting IRE1 Using Same” (OPTIKIRA, LLC, priority 2020, published 2023)
# Key:
# XBP1 = experiment: Cellular XBP1 splicing assay (NanoLuc luciferase reporter); assay type: cell-based; settings: Homo sapiens; ARPE-19 cells stably expressing XBP1-nano-luciferase; thapsigargin 150 nM, 4 hour incubation
# Protocol: ARPE-19 cells stably expressing XBP1 (a.a. 1-376) with nano-luciferase gene sequence linked so it is in frame when XBP1 is spliced, were cultured in F12 media, 10 % FBS, 0.044% sodium bicarbonate, 150 µg/ml hygromycin B and seeded for assays at 5,000 cells in 384 well plates in culture media without hygromycin B and incubated at 37° C./5% CO2. After overnight incubation test compounds were added to the cell plate in a 10-point ½ log dilution series in duplicate (final DMSO concentration 0.117 %). After further incubation of 30 minutes thapsigargin was added (final concentration 150 nM) and then another 4 hour incubation. A NanoLuc luciferase assay (Promega) was used according to the manufacturer’s instructions to detect the luciferase and luminescence measured on a luminometer (EnVision, PerkinElmer). IC50 values calculated by fitting a sigmoidal curve to percent inhibition of control of compound concentration.
# IRE1α RNase = IRE1α RNase (Homo sapiens (Human), UniProt O75460); experiment: Inhibition of RNase activity of IRE1α; assay type: biochemical; settings: 0.325 nM enzyme, 100 nM substrate, 20 minutes at room temperature
# Chain of IRE1α RNase (O75460 468-977): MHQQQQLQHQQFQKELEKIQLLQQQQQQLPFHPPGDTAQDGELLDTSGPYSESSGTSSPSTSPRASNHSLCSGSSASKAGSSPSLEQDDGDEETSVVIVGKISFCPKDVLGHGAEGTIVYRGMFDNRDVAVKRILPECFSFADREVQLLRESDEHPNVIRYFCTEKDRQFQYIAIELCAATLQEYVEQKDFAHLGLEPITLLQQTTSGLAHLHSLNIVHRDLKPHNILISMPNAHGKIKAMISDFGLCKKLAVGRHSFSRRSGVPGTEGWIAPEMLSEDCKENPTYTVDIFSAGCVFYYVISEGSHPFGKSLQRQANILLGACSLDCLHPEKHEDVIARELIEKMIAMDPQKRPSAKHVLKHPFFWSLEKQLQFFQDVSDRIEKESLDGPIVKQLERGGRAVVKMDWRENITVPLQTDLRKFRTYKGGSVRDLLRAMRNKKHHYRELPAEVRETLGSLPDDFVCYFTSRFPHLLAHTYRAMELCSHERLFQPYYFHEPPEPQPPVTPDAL
# Protocol: The RNase reactions were performed in 384 well black ProxiPlate-384 Plus plates (PERKIN Elmer) using 50 mM Tris assay buffer with 0.5 mM MgCl2, 10 mM KCl, 0.03 % Tween, 2 mM DTT and 1% DMSO. Test compounds were prepared on the day of assay and dispensed using D300 digital dispenser as a 10-point ½ log dilution series in duplicate, normalized to a final DMSO concentration of […]. Test compounds were pre-incubated for 30 min at room temperature with IRE1α kinase (E31-11G from Signal Chem) in 2.5 µL of assay buffer. Then 2.5 µl of assay buffer containing substrate (5′ Alexa Fluor 647 - rCrArUrGrUrC rCrGrCrArGrCrGrCrArUrG - Iowa Black RQ quencher 3′) (SEQ ID NO:1) added, giving a final concentration of enzyme of 0.325 nM and of substrate of 100 nM. After 20 minutes incubation at room temperature the reactions were stopped by added 5 µL of 5 M urea, incubated at room temperature for 10 minutes and fluorescence measured on a plate reader (EnVision, PerkinElmer). IC50 values calculated by fitting a sigmoidal curve to percent inhibition of control versus compound concentration.
# IRE1α kinase = IRE1α kinase (Homo sapiens (Human), UniProt O75460); experiment: Inhibition of kinase activity of IRE1α (ADP-Glo); assay type: biochemical; settings: 5 nM IRE1α kinase, 100 µM ATP, 4 hours at room temperature
# Chain of IRE1α kinase (O75460 468-977): as above
# Protocol: The kinase reactions were performed in 384 well white ProxiPlate-384 Plus plates (PERKIN Elmer 6008280) using 25 mM MOPS assay buffer with 1 mM dithiothreitol, 25 mM MgCl2, 12.5 mM β-glycerophosphate, 5 mM EGTA, and 50 µg/mL BSA. Test compounds were prepared on the day of assay and dispensed using D300 digital dispenser as a 10-point ½ log dilution series in duplicate, normalized to a final DMSO concentration of 3%. Test compounds were pre-incubated for 30 min at room temperature with 10 nM IRE1α kinase (E31-11G from Signal Chem) in 2.5 µL of assay buffer and the reaction started by addition of 2.5 µL of ATP in assay buffer, to give a final ATP concentration of 100 µm and 5 nM IRE1α kinase. After 4 hours incubation at room temperature the reactions were stopped and the kinase activity determined using the ADP-Glo™ reagent from Promega, according to the manufacturer’s instructions. Luminescence was measured on a luminometer (EnVision, PerkinElmer) and IC50 values calculated by fitting a sigmoidal curve to percent inhibition of control versus Log10 of compound concentration.
IC50 (XBP1) [nM],IC50 (IRE1α RNase) [nM],IC50 (IRE1α kinase) [nM],Structure (SMILES)
10.6,4.8,2.1,"CCOc1ccc(Cl)c(S(=O)(=O)Nc2cc(F)c(-c3nn(C(C)C)c4c3c(N)ncc4[C@H]3CC[C@H](N4CCOCC4)CC3)cc2F)c1 [Compound A17, N-(4-(4-amino-1-isopropyl-7-((1r,4r)-4-morpholinocyclohexyl)-1H-pyrazolo[4,3-c]pyridin-3-yl)-2,5-difluorophenyl)-2-chloro-5-ethoxybenzenesulfonamide]"
11.6,4.8,2.1,"CC(C)n1nc(-c2cc(F)c(NS(=O)(=O)Cc3ccccc3F)cc2F)c2c(N)ncc([C@H]3CC[C@H](N4CCOCC4)CC3)c21 [Compound A11, N-(4-(4-amino-1-isopropyl-7-((1r,4r)-4-morpholinocyclohexyl)-1H-pyrazolo[4,3-c]pyridin-3-yl)-2,5-difluorophenyl)-1-(2-fluorophenyl)methanesulfonamide]"
6.8,6,1.9,"[2H]C([2H])([2H])Oc1ccc(F)c(S(=O)(=O)Nc2cc(F)c(-c3nn(C(C)C)c4c3c(N)ncc4[C@H]3CC[C@H](N4CCOCC4)CC3)cc2F)c1 [Compound A18, N-(4-(4-amino-1-isopropyl-7-((1r,4r)-4-morpholinocyclohexyl)-1H-pyrazolo[4,3-c]pyridin-3-yl)-2,5-difluorophenyl)-2-fluoro-5-(methoxy-d3)benzenesulfonamide]"
10.3,3.5,2.3,"CC(C)n1nc(-c2cc(F)c(NS(=O)(=O)c3cc(Cl)ccc3F)cc2F)c2c(N)ncc([C@H]3CC[C@H](N4CCOCC4)CC3)c21 [Compound A20, N-(4-(4-amino-1-isopropyl-7-((1r,4r)-4-morpholinocyclohexyl)-1H-pyrazolo[4,3-c]pyridin-3-yl)-2,5-difluorophenyl)-5-chloro-2-fluorobenzenesulfonamide]"
7.7,3.4,2.1,"Cc1ccc(F)c(S(=O)(=O)Nc2cc(F)c(-c3nn(C(C)C)c4c3c(N)ncc4[C@H]3CC[C@H](N4CCOCC4)CC3)cc2F)c1 [Compound A12, N-(4-(4-amino-1-isopropyl-7-((1r,4r)-4-morpholinocyclohexyl)-1H-pyrazolo[4,3-c]pyridin-3-yl)-2,5-difluorophenyl)-2-fluoro-5-methylbenzenesulfonamide]"
